Test results published in patent US12318382B2, “Methods of treating rheumatic diseases using trimetazidine-based compounds” (IMBRIA PHARMACEUTICALS, INC., priority 2018, dated 2025).

Assay: Stability of CV-8972 in aqueous solution at different concentrations and pH
Type: physicochemical
Procedure: The stability of CV-8972 was analyzed. Aqueous samples containing CV-8972 at different concentrations and pH were incubated for various periods and analyzed.
Form A of CV-8972 were analyzed for stability in aqueous solution. Aqueous samples containing CV-8972 at different concentrations and pH were incubated for various periods and analyzed.

COc1ccc(CN2CCN(CCOC(=O)c3cccnc3)CC2)c(OC)c1OC [CV-8972, 2-(4-(2,3,4-trimethoxybenzyl)piperazin-1-yl)ethyl nicotinate]
Retention Time 5.6 (purity of CV-8972) (276-MBA-172 2 mg/mL pH 6 (Form A), 0 hrs): 98.01
Retention Time 5.6 (purity of CV-8972) (276-MBA-172 2 mg/mL pH 6 (Form A), 1 hrs): 97.22
Retention Time 5.6 (purity of CV-8972) (276-MBA-172 2 mg/mL pH 6 (Form A), 4 hrs): 97.01
Retention Time 5.6 (purity of CV-8972) (276-MBA-172 2 mg/mL pH 6 (Form A), 6 hrs): 96.51
Retention Time 5.6 (purity of CV-8972) (276-MBA-172 2 mg/mL pH 7 (Form A), 0 hrs): 97.53
Retention Time 5.6 (purity of CV-8972) (276-MBA-172 2 mg/mL pH 7 (Form A), 1 hrs): 95.06
Retention Time 5.6 (purity of CV-8972) (276-MBA-172 2 mg/mL pH 7 (Form A), 4 hrs): 93.7
Retention Time 5.6 (purity of CV-8972) (276-MBA-172 2 mg/mL pH 7 (Form A), 6 hrs): 92.12
Retention Time 5.6 (purity of CV-8972) (276-MBA-172 2 mg/mL pH 7 (Form A), 22 hrs): 91.07
Retention Time 5.6 (purity of CV-8972) (276-MBA-172 10 mg/mL pH 6 (Form A), 0 hrs): 95.24
Retention Time 5.6 (purity of CV-8972) (276-MBA-172 10 mg/mL pH 6 (Form A), 1 hrs): 93.43
Retention Time 5.6 (purity of CV-8972) (276-MBA-172 10 mg/mL pH 6 (Form A), 4 hrs): 91.82
Retention Time 5.6 (purity of CV-8972) (276-MBA-172 10 mg/mL pH 6 (Form A), 6 hrs): 91.8
Retention Time 5.6 (purity of CV-8972) (276-MBA-172 10 mg/mL pH 6 (Form A), 22 hrs): 89.66
Retention Time 5.6 (purity of CV-8972) (276-MBA-172 10 mg/mL pH 7 (Form A), 0 hrs): 92.85
Retention Time 5.6 (purity of CV-8972) (276-MBA-172 10 mg/mL pH 7 (Form A), 1 hrs): 89.05
Retention Time 5.6 (purity of CV-8972) (276-MBA-172 10 mg/mL pH 7 (Form A), 4 hrs): 86.8
Retention Time 5.6 (purity of CV-8972) (276-MBA-172 10 mg/mL pH 7 (Form A), 6 hrs): 84.79
Retention Time 5.6 (purity of CV-8972) (289-MBA-15-A 2 mg/mL pH 6 (Form B), 0 hrs): 97.48
Retention Time 5.6 (purity of CV-8972) (289-MBA-15-A 2 mg/mL pH 6 (Form B), 1 hrs): 95.1
Retention Time 5.6 (purity of CV-8972) (289-MBA-15-A 2 mg/mL pH 6 (Form B), 4 hrs): 92.45
Retention Time 5.6 (purity of CV-8972) (289-MBA-15-A 2 mg/mL pH 6 (Form B), 6 hrs): 90.65
Retention Time 5.6 (purity of CV-8972) (289-MBA-15-A 2 mg/mL pH 6 (Form B), 22 hrs): 89.15
Retention Time 5.6 (purity of CV-8972) (289-MBA-15-A 2 mg/mL pH 7 (Form B), 0 hrs): 97.48
Retention Time 5.6 (purity of CV-8972) (289-MBA-15-A 2 mg/mL pH 7 (Form B), 1 hrs): 95.46
Retention Time 5.6 (purity of CV-8972) (289-MBA-15-A 2 mg/mL pH 7 (Form B), 4 hrs): 93.92
Retention Time 5.6 (purity of CV-8972) (289-MBA-15-A 10 mg/mL pH 6 (Form B), 0 hrs): 95.36
Retention Time 5.6 (purity of CV-8972) (289-MBA-15-A 10 mg/mL pH 6 (Form B), 1 hrs): 94.81
Retention Time 5.6 (purity of CV-8972) (289-MBA-15-A 10 mg/mL pH 6 (Form B), 4 hrs): 94.69
Retention Time 5.6 (purity of CV-8972) (289-MBA-15-A 10 mg/mL pH 6 (Form B), 6 hrs): 94.39
Retention Time 5.6 (purity of CV-8972) (289-MBA-15-A 10 mg/mL pH 6 (Form B), 22 hrs): 93.93
Retention Time 5.6 (purity of CV-8972) (289-MBA-15-A 10 mg/mL pH 7 (Form B), 0 hrs): 91.5
Retention Time 5.6 (purity of CV-8972) (289-MBA-15-A 10 mg/mL pH 7 (Form B), 1 hrs): 86.18
Retention Time 5.6 (purity of CV-8972) (289-MBA-15-A 10 mg/mL pH 7 (Form B), 4 hrs): 82.36
Retention Time 5.6 (purity of CV-8972) (289-MBA-15-A 10 mg/mL pH 7 (Form B), 6 hrs): 79.37
